Laboratory results: ChEMBL document CHEMBL1944551, “An integrated computational workflow for efficient and quantitative modeling of renin inhibitors” (Bioorg Med Chem, 2012)

test: physchem; settings: octanol/buffer

Row | logP | SMILES
1 | 5.29 | COc1ccccc1COCCCOc1ccc(N2C(=O)CNC[C@@H]2C(=O)N(Cc2cc(CNCC(F)F)ccc2Cl)C2CC2)cc1
2 | 5.29 | CC(=O)NCc1ccc(Cl)c(CN(C(=O)[C@H]2CNCC(=O)N2c2ccc(OCCOc3c(Cl)cc(C)cc3Cl)cc2)C2CC2)c1
3 | 5.94 | COCCc1ccc(Cl)c(CN(C(=O)[C@H]2CNCC(=O)N2c2ccc(CCCOc3c(F)ccc(F)c3F)cc2)C2CC2)c1
4 | 4.81 | CNC(=O)OCc1ccc(Cl)c(CN(C(=O)[C@H]2CNCC(=O)N2c2ccc(OCCCOCc3ccccc3OC)cc2)C2CC2)c1
5 | 1.89 | COc1ccccc1COCCCOc1ncc(N2C(=O)CNC[C@@H]2C(=O)N(C)CCc2ccccc2)cn1
6 | 4.52 | COc1ccccc1COCCCOc1ccc(N2C(=O)CNC[C@@H]2C(=O)N(Cc2cc(CNC(C)=O)ccc2Cl)C2CC2)cc1
7 | 5.07 | CN(Cc1ccccc1Cl)C(=O)[C@H]1CNCC(=O)N1c1ccc(CCCOc2c(F)ccc(F)c2F)cc1
8 | 4.88 | CNCc1ccc(Cl)c(CN(C(=O)[C@H]2CNCC(=O)N2c2ccc(OCCCOCc3ccccc3OC)cc2)C2CC2)c1
9 | 2.56 | CNC(=O)CCc1ccc(Cl)c(CN(C(=O)[C@H]2CNCC(=O)N2c2cnc(OCCCOCc3ccccc3OC)nc2)C2CC2)c1
10 | 5.59 | Cc1cc(Cl)c(OCCOc2ccc(N3C(=O)CNC[C@@H]3C(=O)N(Cc3cccc(Cl)c3Cl)C3CC3)cn2)c(Cl)c1
11 | 4.43 | CNC(=O)Cc1ccc(Cl)c(CN(C(=O)[C@H]2CNCC(=O)N2c2ccc(OCCOc3c(Cl)cc(C)cc3Cl)nc2)C2CC2)c1
12 | 5.7 | O=C([C@H]1CNCC(=O)N1c1ccc(OCCCOCc2ccccc2)cc1)N(Cc1cccc(Cl)c1Cl)C1CC1
13 | 4.21 | COc1ccccc1COCCCOc1ccc(N2C(=O)CNC[C@@H]2C(=O)NCc2ccccc2Cl)cc1
14 | 5.6 | CCNC(=O)Cc1ccc(Cl)c(CN(C(=O)[C@H]2CNCC(=O)N2c2ccc(OCCOc3c(Cl)cc(C)cc3Cl)cc2)C2CC2)c1
15 | 5.66 | CC(C)(C)OCC(=O)NCCc1ccc(Cl)c(CN(C(=O)[C@H]2CNCC(=O)N2c2ccc(OCCCOCc3ccccc3)cc2)C2CC2)c1
16 | 4.19 | CC(=O)NCc1ccc(Cl)c(CN(C(=O)[C@H]2CNCC(=O)N2c2ccc(COC(=O)c3ccccc3)cc2)C2CC2)c1
17 | 6.02 | Cc1cc(Cl)c(OCCOc2ccc(N3C(=O)CNC[C@@H]3C(=O)N(Cc3cc(CNC(=O)CC(F)(F)F)ccc3Cl)C3CC3)cc2)c(Cl)c1
18 | 4.84 | COC(=O)NCCc1ccc(Cl)c(CN(C(=O)[C@H]2CNCC(=O)N2c2ccc(OCCOc3c(Cl)cc(C)cc3Cl)nc2)C2CC2)c1
19 | 5.29 | O=C(CC(F)(F)F)NCc1ccc(Cl)c(CN(C(=O)[C@H]2CNCC(=O)N2c2ccc(OCCCOCc3ccccc3)cc2)C2CC2)c1
20 | 5.91 | Cc1cc(Cl)c(OCCOc2ccc(N3C(=O)CNC[C@@H]3C(=O)N(Cc3cc(CC(=O)NC4CC4)ccc3Cl)C3CC3)cc2)c(Cl)c1
21 | 5.65 | COC(=O)NCc1ccc(Cl)c(CN(C(=O)[C@H]2CNCC(=O)N2c2ccc(CCCOc3cccc(Cl)c3)cc2)C2CC2)c1
22 | 4.72 | COc1ccccc1COCCCOc1ccc(N2C(=O)CNC[C@@H]2C(=O)N(Cc2cccc(OC)c2C)C2CC2)cc1
23 | 5.25 | CCNCCc1ccc(Cl)c(CN(C(=O)[C@H]2CNCC(=O)N2c2ccc(OCCOc3c(Cl)cc(C)cc3Cl)nc2)C2CC2)c1
24 | 5.04 | O=C([C@H]1CNCC(=O)N1c1ccc(OCCCOCc2ccccc2)cc1)N(Cc1cc(CNCCF)ccc1Cl)C1CC1
25 | 3.9 | COc1ccccc1COCCCOc1ccc(N2C(=O)CNC[C@@H]2C(=O)N(C)CCc2ccccc2)cc1
26 | 5.56 | Cc1cc(Cl)c(OCCOc2ccc(N3C(=O)CNC[C@@H]3C(=O)N(Cc3cc(CCNC(=O)COC(C)(C)C)ccc3Cl)C3CC3)cn2)c(Cl)c1
27 | 5.99 | CCNCc1ccc(Cl)c(CN(C(=O)[C@H]2CNCC(=O)N2c2ccc(OCCOc3c(Cl)cc(C)cc3Cl)cc2)C2CC2)c1
28 | 5.65 | COc1ccccc1COCCCOc1ccc(N2C(=O)CNC[C@@H]2C(=O)N(Cc2cccc(Cl)c2Cl)C2CC2)cc1
29 | 5.74 | COC(=O)NCCc1ccc(Cl)c(CN(C(=O)[C@H]2CNCC(=O)N2c2ccc(CCCOc3cccc(Cl)c3)cc2)C2CC2)c1
30 | 1.61 | COc1ccccc1COCCCOc1ncc(N2C(=O)CNC[C@@H]2C(=O)NCc2ccccc2)cn1

The remaining lines, values behind:

Row | SMILES | logP
31 | COCCCc1cc(CN(C(=O)[C@H]2CNCC(=O)N2c2ccc(CCCOc3c(F)ccc(F)c3F)cc2)C2CC2)c(Cl)cn1 | 5.11
32 | O=C(Cc1ccc(Cl)c(CN(C(=O)[C@H]2CNCC(=O)N2c2ccc(CCCOc3c(F)ccc(F)c3F)cc2)C2CC2)c1)NC1CC1 | 5.8
33 | CN(CCc1ccccc1)C(=O)[C@H]1CNCC(=O)N1c1ccc(OCCCOCc2ccccc2)cc1 | 3.95
34 | Cc1cc(Cl)c(OCCOc2ccc(N3C(=O)CNC[C@@H]3C(=O)N(Cc3ccc(Cl)cc3)C3CC3)cn2)c(Cl)c1 | 5.01
35 | Cc1cc(Cl)c(OCCOc2ccc(N3C(=O)CNC[C@@H]3C(=O)NCc3ccccc3)cn2)c(Cl)c1 | 3.56
36 | Cc1cc(Cl)c(OCCOc2ccc(N3C(=O)CNC[C@@H]3C(=O)N(C)Cc3ccccc3Cl)cn2)c(Cl)c1 | 4.35
37 | CN(Cc1ccccc1Cl)C(=O)[C@H]1CNCC(=O)N1c1ccc(OCCCOCc2ccccc2)cc1 | 4.45
38 | O=C([C@H]1CNCC(=O)N1c1ccc(CCCOc2c(F)ccc(F)c2F)cc1)N(Cc1cc(CCNCC(F)F)ccc1Cl)C1CC1 | 6.05
39 | O=C([C@H]1CNCC(=O)N1c1ccc(CCCOc2cccc(Cl)c2)cc1)N(Cc1cc(CNCC(F)F)ccc1Cl)C1CC1 | 6.14
40 | O=C(NCc1ccccc1Cl)[C@H]1CNCC(=O)N1c1ccc(CCCOc2cccc(Cl)c2)cc1 | 5.05
41 | CNC(=O)Cc1ccc(Cl)c(CN(C(=O)[C@H]2CNCC(=O)N2c2ccc(COC(=O)c3ccccc3)cc2)C2CC2)c1 | 4.15
42 | Cc1cc(Cl)c(OCCOc2ccc(N3C(=O)CNC[C@@H]3C(=O)N(Cc3cc(CNCC(F)F)ccc3Cl)C3CC3)cn2)c(Cl)c1 | 5.24
43 | COCCCc1cc(CN(C(=O)[C@H]2CNCC(=O)N2c2ccc(OCCOc3c(Cl)cc(C)cc3Cl)cc2)C2CC2)c(Cl)cn1 | 5.22
44 | COc1ccccc1COCCCOc1ncc(N2C(=O)CNC[C@@H]2C(=O)N(Cc2cccc(Cl)c2)C2CC2)cn1 | 3.09
45 | CN(CCCc1ccccc1)C(=O)[C@H]1CNCC(=O)N1c1ccc(COC(=O)c2ccccc2)cc1 | 4.02
46 | Cc1cc(Cl)c(OCCOc2ccc(N3C(=O)CNC[C@@H]3C(=O)NCc3ccccc3)cc2)c(Cl)c1 | 4.39
47 | COCCCc1cc(CN(C(=O)[C@H]2CNCC(=O)N2c2cnc(OCCCOCc3ccccc3OC)nc2)C2CC2)c(Cl)c[n+]1[O-] | 2.65
48 | COc1c(CN(C(=O)[C@H]2CNCC(=O)N2c2ccc(OCCOc3c(Cl)cc(C)cc3Cl)nc2)C2CC2)ccnc1C | 3.39
49 | COC(=O)NCc1ccc(Cl)c(CN(C(=O)[C@H]2CNCC(=O)N2c2ccc(COC(=O)c3ccccc3)cc2)C2CC2)c1 | 4.48
50 | CCNCCc1ccc(Cl)c(CN(C(=O)[C@H]2CNCC(=O)N2c2ccc(OCCCOCc3ccccc3)cc2)C2CC2)c1 | 5.35
51 | O=C(NCc1ccccc1Cl)[C@H]1CNCC(=O)N1c1ccc(CCCOc2c(F)ccc(F)c2F)cc1 | 4.88
52 | COc1ccccc1COCCCOc1ccc(N2C(=O)CNC[C@@H]2C(=O)N(Cc2cc(CNC(=O)C3CC3)ccc2Cl)C2CC2)cc1 | 4.87

Row | SMILES | logP
53 | CNC(=O)OCc1ccc(Cl)c(CN(C(=O)[C@H]2CNCC(=O)N2c2ccc(CCCOc3cccc(Cl)c3)cc2)C2CC2)c1 | 5.65
54 | COCCCc1cc(CN(C(=O)[C@H]2CNCC(=O)N2c2ccc(OCCCOCc3ccccc3OC)cc2)C2CC2)c(Cl)c[n+]1[O-] | 4.66
55 | CNCCc1ccc(Cl)c(CN(C(=O)[C@H]2CNCC(=O)N2c2ccc(OCCOc3c(Cl)cc(C)cc3Cl)cc2)C2CC2)c1 | 5.74
56 | COc1ccccc1COCCCOc1ncc(N2C(=O)CNC[C@@H]2C(=O)N(Cc2cccc(Cl)c2Cl)C2CC2)cn1 | 3.64
57 | CCNCc1ccc(Cl)c(CN(C(=O)[C@H]2CNCC(=O)N2c2ccc(OCCCOCc3ccccc3OC)cc2)C2CC2)c1 | 5.22
58 | COc1ccccc1COCCCOc1ccc(N2C(=O)CNC[C@@H]2C(=O)N(Cc2cc(CCNCC(F)F)ccc2Cl)C2CC2)cc1 | 5.38
59 | Cc1cc(Cl)c(OCCOc2ccc(N3C(=O)CNC[C@@H]3C(=O)N(Cc3cccc(C)c3C)C3CC3)cc2)c(Cl)c1 | 5.83
60 | Cc1cc(Cl)c(OCCOc2ccc(N3C(=O)CNC[C@@H]3C(=O)N(Cc3cc(CNCC(F)F)ccc3Cl)C3CC3)cc2)c(Cl)c1 | 6.07
61 | COc1ccccc1COCCCOc1ncc(N2C(=O)CNC[C@@H]2C(=O)N(Cc2cc(CC(=O)NC3CC3)ccc2Cl)C2CC2)cn1 | 3.13
62 | Cc1cc(Cl)c(OCCOc2ccc(N3C(=O)CNC[C@@H]3C(=O)N(Cc3cc(CNCCF)ccc3Cl)C3CC3)cn2)c(Cl)c1 | 4.94
63 | Cc1cc(Cl)c(OCCOc2ccc(N3C(=O)CNC[C@@H]3C(=O)N(Cc3cc(CNC(=O)CC(F)(F)F)ccc3Cl)C3CC3)cn2)c(Cl)c1 | 5.19
64 | CCNCc1ccc(Cl)c(CN(C(=O)[C@H]2CNCC(=O)N2c2ccc(OCCCOCc3ccccc3)cc2)C2CC2)c1 | 5.26
65 | COc1ccccc1COCCCOc1ccc(N2C(=O)CNC[C@@H]2C(=O)N(Cc2cc(CCNC(C)=O)ccc2Cl)C2CC2)cc1 | 4.61
66 | CCNCc1ccc(Cl)c(CN(C(=O)[C@H]2CNCC(=O)N2c2ccc(COC(=O)c3ccccc3)cc2)C2CC2)c1 | 4.89
67 | CNCCc1ccc(Cl)c(CN(C(=O)[C@H]2CNCC(=O)N2c2ccc(COC(=O)c3ccccc3)cc2)C2CC2)c1 | 4.64
68 | CCC(=O)NCc1ccc(Cl)c(CN(C(=O)[C@H]2CNCC(=O)N2c2cnc(OCCCOCc3ccccc3OC)nc2)C2CC2)c1 | 2.98
69 | COc1ccccc1COCCCOc1ccc(N2C(=O)CNC[C@@H]2C(=O)N(Cc2cc(CNC(=O)CC(F)(F)F)ccc2Cl)C2CC2)cc1 | 5.25
70 | CNC(=O)OCc1ccc(Cl)c(CN(C(=O)[C@H]2CNCC(=O)N2c2ccc(OCCOc3c(Cl)cc(C)cc3Cl)cc2)C2CC2)c1 | 5.58
71 | COc1ccccc1COCCCOc1ncc(N2C(=O)CNC[C@@H]2C(=O)N(Cc2cc(CNCC(F)F)ccc2Cl)C2CC2)cn1 | 3.28
72 | CN(Cc1ccccc1Cl)C(=O)[C@H]1CNCC(=O)N1c1ccc(CCCOc2cccc(Cl)c2)cc1 | 5.25
73 | CCNCCc1ccc(Cl)c(CN(C(=O)[C@H]2CNCC(=O)N2c2ccc(OCCCOCc3ccccc3OC)cc2)C2CC2)c1 | 5.31

same assay, conditions: octanol/water

Row | SMILES | logP
74 | COc1ccccc1COCCCOc1ncc(N2C(=O)CNC[C@@H]2C(=O)NCc2ccccc2Cl)cn1 | 2.2
